Laboratory results taken from patent US7557113B2, “Substituted pyrrolo[3,2-d]pyrimidine derivatives” (Teijin Pharma Limited, priority 2003, dated 2009).
pIC50: −log10 of the molar value.

These molecules were tested against recombinant human GSK-3β (Homo sapiens, UniProt P49841) (assay: Determination of Inhibition of GSK-3 Activity (phospho-glycogen synthase peptide-2 phosphorylation, [γ-33P]ATP, scintillation counting)). Settings: group stated as 20 nM<IC50<100 nM; read-out: GSK-3 inhibitor activity values (IC50 values).
recombinant human GSK-3β, sequence (P49841 whole entry): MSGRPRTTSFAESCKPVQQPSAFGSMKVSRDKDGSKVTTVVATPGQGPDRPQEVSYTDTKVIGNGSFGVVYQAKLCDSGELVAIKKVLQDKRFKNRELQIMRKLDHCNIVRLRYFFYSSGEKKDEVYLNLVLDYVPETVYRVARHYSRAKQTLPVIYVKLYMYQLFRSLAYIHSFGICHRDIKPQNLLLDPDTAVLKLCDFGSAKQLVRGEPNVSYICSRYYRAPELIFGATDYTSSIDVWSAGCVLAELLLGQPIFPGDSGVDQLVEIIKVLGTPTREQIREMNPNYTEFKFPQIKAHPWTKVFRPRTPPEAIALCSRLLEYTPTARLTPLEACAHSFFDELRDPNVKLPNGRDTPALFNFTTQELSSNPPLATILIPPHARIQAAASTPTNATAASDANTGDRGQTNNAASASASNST
Assay type: biochemical
Procedure: The reaction was initiated by adding 25 μL of phospho-glycogen synthase peptide-2 substrate solution [containing 6 μM phospho-glycogen synthase peptide-2, 20 μM ATP, 16 mM MOPS buffer (pH 7.0), 0.2 mM EDTA, 20 mM magnesium acetate, 0.1 μ Ci[γ-^33P]ATP (relative activity: approximately 110 TBq/mmol)] to 5 μL of each test compound using 5% dimethylsulfoxide as a solvent, and further adding 20 μL of GSK-3β enzyme solution [containing 10 mU recombinant human GSK-3β, 20 mM MOPS buffer (pH 7.0), 1 mM EDTA, 0.1% polyoxyethylene lauryl ether(23 Lauryl Ether; Brij 35), 5% glycerol, and 0.1% β-mercaptoethanol. After 20 minutes at room temperature, the reaction was terminated by the addition of the equivalent amount of 200 mM phosphoric acid solution. 90 μL of the reaction product was spotted onto a multiscreen PH plate (manufactured by Millipore) and washed with 100 mM phosphoric acid solution. The plate was dried, and 30 μL of MicroScint-O (manufactured by Packard BioScience) was added thereto. To evaluate inhibitory activity, cpm was counted using a scintillation counter. Here, Phospho GS Peptide 2 is an amino acid peptide having the following sequence: […]P)-Glu-Asp-Glu-Glu-Glu.
A pIC50 of 7.00 to 7.70 was found for Cc1ccc(CNC(=O)CCCn2c(C3CC3)c(-c3cnn(C)c3)c3nc[nH]c(=O)c32)cc1 [Compound 2332, 4-[6-cyclopropyl-7-(1-methylpyrazol-4-yl)-4-oxo-(3-hydropyrrolo[3,2-d]pyrimidin-5-yl)]-N-[(4-methylphenyl)methyl]butanamide] in this work.
A pIC50 of 7.00 to 7.70 was found for Cc1ccc(CNC(=O)CCCn2c(C3CC3)c(-c3cccnc3)c3nc[nH]c(=O)c32)cc1 [Compound 2331, 4-(6-cyclopropyl-4-oxo-7-(3-pyridyl)(3-hydropyrrolo[3,2-d]pyrimidin-5-yl))-N-[(4-methylphenyl)methyl]butanamide] in this work.
A pIC50 of 7.00 to 7.70 was found for CC(=O)NCCn1c(-c2sccc2Cl)c(-c2cccnc2)c2nc[nH]c(=O)c21 [Compound 217, N-{2-[6-(3-chloro(2-thienyl))-4-oxo-7-(3-pyridyl)-3-hydropyrrolo[3,2-d]pyrimidin-5-yl]ethyl}acetamide] in this work.
A pIC50 of 7.00 to 7.70 was found for O=C(NCCn1c(-c2sccc2Cl)c(-c2cccnc2)c2nc[nH]c(=O)c21)Nc1ccccc1 [Compound 793, 1-{2-[6-(3-chloro-thiophen-2-yl)-4-oxo-7-pyridin-3-yl-3-hydropyrrolo[3,2-d]pyrimidin-5-yl]ethyl}-3-phenylurea] in this work.
A pIC50 of 7.00 to 7.70 was found for CC(C)(C)CC(=O)NCCn1c(-c2sccc2Cl)c(-c2cccnc2)c2nc[nH]c(=O)c21 [Compound 626, N-{2-[6-(3-chloro-thiophen-2-yl)-4-oxo-7-pyridin-3-yl-3-hydropyrrolo[3,2-d]pyrimidin-5-yl]ethyl}-t-butylacetylamide] in this work.

Same assay, conditions: group stated as IC50<100 nM; read-out: GSK-3 inhibitor activity values (IC50 values)
A pIC50 of over 7.00 was found for CC(C)(C)CC(=O)NCCn1c(-c2sccc2Cl)c(-c2cn[nH]c2)c2nc[nH]c(=O)c21 [Compound 629, N-{2-[7-(1H-pyrazol-4-yl)-6-(3-chloro-thiophen-2-yl)-4-oxo-3-hydropyrrolo[3,2-d]pyrimidin-5-yl]ethyl}-t-butylacetylamide] in this work.
